Read-outs that look alike come from different tables or passages of the source. *1 amine or outer side, *2 acyl side, *3 side chain or, on linkers, in order; H or OH if unused. Where a SMILES comes first, the peptide text is derived from it. [ ]: non-standard residue; d: D form. The star is where a group is joined. Benzothienyl2CO(5-CF2PO3H2) = O=C(c1cc2cc(C(F)(F)P(=O)(O)O)ccc2s1)*; βAla(N-(4-Br-phenyl)) = O=C(CCN(c1ccc(Br)cc1)[*:1])[*:2]; NHBn(4-(4-Me-thiazol-5-yl)) = Cc1ncsc1-c1ccc(CN*)cc1; NH(CH2)9CO = O=C(CCCCCCCCCN[*:1])[*:2]; Hyp = O=C(O)[C@@H]1C[C@@H](O)CN1; Tle = CC(C)(C)[C@H](N)C(=O)O
Target: T1, STAT6 (Homo sapiens, UniProt P42226)
T1 construct: endogenous in cells; host or cells: MOLM-16, KU-812, SKNO1, MB231, L1236
T1 sequence (P42226 1-847): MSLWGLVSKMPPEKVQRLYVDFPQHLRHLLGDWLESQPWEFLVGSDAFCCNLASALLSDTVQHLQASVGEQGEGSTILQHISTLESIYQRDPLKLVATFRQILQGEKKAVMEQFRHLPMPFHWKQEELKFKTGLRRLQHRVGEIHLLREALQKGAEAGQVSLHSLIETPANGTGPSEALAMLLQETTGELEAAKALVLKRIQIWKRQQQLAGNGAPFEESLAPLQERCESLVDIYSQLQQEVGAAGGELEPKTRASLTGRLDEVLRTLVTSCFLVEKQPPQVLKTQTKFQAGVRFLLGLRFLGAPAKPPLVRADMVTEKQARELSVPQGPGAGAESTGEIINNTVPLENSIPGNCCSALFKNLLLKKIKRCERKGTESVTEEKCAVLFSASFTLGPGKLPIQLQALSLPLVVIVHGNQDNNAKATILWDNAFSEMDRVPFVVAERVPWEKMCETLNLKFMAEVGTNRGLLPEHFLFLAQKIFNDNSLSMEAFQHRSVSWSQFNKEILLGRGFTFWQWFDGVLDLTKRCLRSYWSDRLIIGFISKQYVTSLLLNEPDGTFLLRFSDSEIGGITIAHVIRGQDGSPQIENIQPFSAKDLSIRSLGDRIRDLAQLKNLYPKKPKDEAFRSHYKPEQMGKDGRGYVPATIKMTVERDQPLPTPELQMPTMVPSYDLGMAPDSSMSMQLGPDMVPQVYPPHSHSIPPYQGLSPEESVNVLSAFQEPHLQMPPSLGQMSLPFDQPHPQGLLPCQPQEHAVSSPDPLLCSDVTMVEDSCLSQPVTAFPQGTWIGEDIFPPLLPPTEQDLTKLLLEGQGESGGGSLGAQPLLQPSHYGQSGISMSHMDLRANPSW
Experiment: Immunoblotting (Western blot) analysis of STAT6 degradation efficiency of degraders in treated cells
Format: cell-based
Summary of the method: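 Each data point uses roughly one million cells dosed as indicated; pellets are lysed on ice, freeze-thawed, and clarified. Reduced, denatured samples (95 °C, 5 min) run on SDS gels, then membranes receive rabbit mAbs to STAT5 or STAT6 plus mouse anti-GAPDH overnight, followed by dye-labelled secondaries for fluorescence imaging.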

[1] = MOLM-16 cells, class symbols, read-out: DC50 S6 MOLM-16
[2] = L1236 cells, read-out: DC50 S6 L1236

Compound | DC50 [1] [µM] | DC50 [2] [µM] | also measured
Cc1ncsc1-c1ccc(CNC(=O)[C@@H]2C[C@@H](O)CN2C(=O)[C@@H](NC(=O)CCCCCCCCCNC(=O)CCN(C(=O)[C@@H]2CCCN2C(=O)[C@@H](NC(=O)c2cc3cc(C(F)(F)P(=O)(O)O)ccc3s2)C(C)(C)C)c2ccc(Br)cc2)C(C)(C)C)cc1 [Compound 396] ({Benzothienyl2CO(5-CF2PO3H2)}-[Tle]P[βAla(N-(4-Br-phenyl))][NH(CH2)9CO][Tle][Hyp]-{NHBn(4-(4-Me-thiazol-5-yl))}) | – | – | DC50 (read-out: DC50 S6 MB231, MB231 cells): > 10 µM
CC(C)(C)[C@H](NC(=O)c1cc2cc(C(F)(F)P(=O)(O)O)ccc2s1)C(=O)N1CCN(C(=O)CC(=O)NCC#Cc2cccc3c2C(=O)N(C2CCC(=O)NC2=O)C3=O)C[C@H]1C(=O)N1CCO[C@H](c2ccccc2)C1 (stereo partly drawn) [Compound 507, ((2-(((2S)-1-((2S)-4-(3-((3-(2-(2,6-dioxopiperidin-3-yl)-1,3-dioxoisoindolin-4-yl)prop-2-yn-1-yl)amino)-3-oxopropanoyl)-2-((R)-2-phenylmorpholine-4-carbonyl)piperazin-1-yl)-3,3-dimethyl-1-oxobutan-2-yl)carbamoyl)benzo[b]thiophen-5-yl)difluoromethyl)phosphonic acid] | > 10 | – | –
Cc1ncsc1-c1ccc([C@H](C)NC(=O)[C@@H]2C[C@@H](O)CN2C(=O)[C@@H](NC(=O)CCNC(=O)COc2ccc3c(c2)CN(C(=O)[C@@H](NC(=O)c2cc4cc(C(F)(F)P(=O)(O)O)ccc4s2)C(C)(C)C)[C@H](C(=O)N2CCO[C@H](c4ccccc4)C2)C3)C(C)(C)C)cc1 [Compound 462, (difluoro(2-(((S)-1-((S)-7-(2-((3-(((S)-1-((2S,4R)-4-hydroxy-2-(((S)-1-(4-(4-methylthiazol-5-yl)phenyl)ethyl)carbamoyl)pyrrolidin-1-yl)-3,3-dimethyl-1-oxobutan-2-yl)amino)-3-oxopropyl)amino)-2-oxoethoxy)-3-((R)-2-phenylmorpholine-4-carbonyl)-3,4-dihydroisoquinolin-2(1H)-yl)-3,3-dimethyl-1-oxobutan-2-yl)carbamoyl)benzo[b]thiophen-5-yl)methyl)phosphonic acid] | > 10 | > 10 | –
Cc1ncsc1-c1ccc([C@H](C)NC(=O)[C@@H]2C[C@@H](O)CN2C(=O)[C@@H](NC(=O)CCNC(=O)CO[C@H]2C[C@@H](C(=O)N3CCO[C@H](c4ccccc4)C3)N(C(=O)[C@@H](NC(=O)c3cc4cc(C(F)(F)P(=O)(O)O)ccc4s3)C(C)(C)C)C2)C(C)(C)C)cc1 [Compound 426, (difluoro(2-(((S)-1-((2S,4S)-4-(2-((3-(((S)-1-((2S,4R)-4-hydroxy-2-(((S)-1-(4-(4-methylthiazol-5-yl)phenyl)ethyl)carbamoyl)pyrrolidin-1-yl)-3,3-dimethyl-1-oxobutan-2-yl)amino)-3-oxopropyl)amino)-2-oxoethoxy)-2-((R)-2-phenylmorpholine-4-carbonyl)pyrrolidin-1-yl)-3,3-dimethyl-1-oxobutan-2-yl)carbamoyl)benzo[b]thiophen-5-yl)methyl)phosphonic acid] | > 10 | > 10 | –
CC(C)(C)[C@H](NC(=O)c1cc2cc(C(F)(F)P(=O)(O)O)ccc2s1)C(=O)N1CCN(C(=O)CC(=O)NCCCCC#Cc2ccc3c(c2)C(=O)N(C2CCC(=O)NC2=O)C3=O)C[C@H]1C(=O)N1CCO[C@H](c2ccccc2)C1 (stereo partly drawn) [Compound 514, ((2-(((2S)-1-((2S)-4-(3-((6-(2-(2,6-dioxopiperidin-3-yl)-1,3-dioxoisoindolin-5-yl)hex-5-yn-1-yl)amino)-3-oxopropanoyl)-2-((R)-2-phenylmorpholine-4-carbonyl)piperazin-1-yl)-3,3-dimethyl-1-oxobutan-2-yl)carbamoyl)benzo[b]thiophen-5-yl)difluoromethyl)phosphonic acid] | > 10 | – | –
Cc1ncsc1-c1ccc([C@H](C)NC(=O)[C@@H]2C[C@@H](O)CN2C(=O)[C@@H](NC(=O)CCNC(=O)CC(=O)N2CCN(C(=O)[C@@H](NC(=O)c3cc4cc(C(F)(F)P(=O)(O)O)ccc4s3)C(C)(C)C)[C@H](C(=O)N3CCO[C@H](c4ccccc4)C3)C2)C(C)(C)C)cc1 [Compound 444, (difluoro(2-(((S)-1-((S)-4-(3-((3-(((S)-1-((2S,4R)-4-hydroxy-2-(((S)-1-(4-(4-methylthiazol-5-yl)phenyl)ethyl)carbamoyl)pyrrolidin-1-yl)-3,3-dimethyl-1-oxobutan-2-yl)amino)-3-oxopropyl)amino)-3-oxopropanoyl)-2-((R)-2-phenylmorpholine-4-carbonyl)piperazin-1-yl)-3,3-dimethyl-1-oxobutan-2-yl)carbamoyl)benzo[b]thiophen-5-yl)methyl)phosphonic acid] | > 10 | > 10 | –
Cc1ncsc1-c1ccc([C@H](C)NC(=O)[C@@H]2C[C@@H](O)CN2C(=O)[C@@H](NC(=O)CCCCNC(=O)CO[C@H]2C[C@@H](C(=O)N3CCC[C@H](c4ccccc4)C3)N(C(=O)[C@@H](NC(=O)c3cc4cc(C(F)(F)P(=O)(O)O)ccc4s3)C(C)(C)C)C2)C(C)(C)C)cc1 [Compound 437, (difluoro(2-(((S)-1-((2S,4S)-4-(2-((5-(((S)-1-((2S,4R)-4-hydroxy-2-(((S)-1-(4-(4-methylthiazol-5-yl)phenyl)ethyl)carbamoyl)pyrrolidin-1-yl)-3,3-dimethyl-1-oxobutan-2-yl)amino)-5-oxopentyl)amino)-2-oxoethoxy)-2-((R)-3-phenylpiperidine-1-carbonyl)pyrrolidin-1-yl)-3,3-dimethyl-1-oxobutan-2-yl)carbamoyl)benzo[b]thiophen-5-yl)methyl)phosphonic acid] | > 10 | > 10 | –
CC(C)(C)[C@H](NC(=O)c1cc2cc(C(F)(F)P(=O)(O)O)ccc2s1)C(=O)N1C[C@@H](OCC(=O)NCCCCCCCCCC#Cc2ccc3c(c2)C(=O)N(C2CCC(=O)NC2=O)C3=O)C[C@H]1C(=O)N1CCC[C@H](c2ccccc2)C1 (stereo partly drawn) [Compound 506, ((2-(((2S)-1-((2S,4S)-4-(2-((11-(2-(2,6-dioxopiperidin-3-yl)-1,3-dioxoisoindolin-5-yl)undec-10-yn-1-yl)amino)-2-oxoethoxy)-2-((R)-3-phenylpiperidine-1-carbonyl)pyrrolidin-1-yl)-3,3-dimethyl-1-oxobutan-2-yl)carbamoyl)benzo[b]thiophen-5-yl)difluoromethyl)phosphonic acid] | > 10 | – | –
Cc1ncsc1-c1ccc([C@H](CC(=O)NCCCCCCCC(=O)N[C@H]2C[C@@H](C(=O)N3CCO[C@H](c4ccccc4)C3)N(C(=O)[C@@H](NC(=O)c3cc4cc(C(F)(F)P(=O)(O)O)ccc4s3)C(C)(C)C)C2)NC(=O)[C@@H]2C[C@@H](O)CN2C(=O)[C@@H](NC(=O)C2(F)CC2)C(C)(C)C)cc1 [Compound 570, (difluoro(2-(((S)-1-((2S,4S)-4-(8-((S)-3-((2S,4R)-1-((S)-2-(1-fluorocyclopropane-1-carboxamido)-3,3-dimethylbutanoyl)-4-hydroxypyrrolidine-2-carboxamido)-3-(4-(4-methylthiazol-5-yl)phenyl)propanamido)octanamido)-2-((R)-2-phenylmorpholine-4-carbonyl)pyrrolidin-1-yl)-3,3-dimethyl-1-oxobutan-2-yl)carbamoyl)benzo[b]thiophen-5-yl)methyl)phosphonic acid] | > 10 | – | –
CC(C)(C)[C@H](NC(=O)c1cc2cc(C(F)(F)P(=O)(O)O)ccc2s1)C(=O)N1C[C@@H](OCCCCCCNc2cccc3c2CN(C2CCC(=O)NC2=O)C3=O)C[C@H]1C(=O)N1CCO[C@H](c2ccccc2)C1 (stereo partly drawn) [Compound 599, ((2-(((2S)-1-((2S,4S)-4-((6-((2-(2,6-dioxopiperidin-3-yl)-1-oxoisoindolin-4-yl)amino)hexyl)oxy)-2-((R)-2-phenylmorpholine-4-carbonyl)pyrrolidin-1-yl)-3,3-dimethyl-1-oxobutan-2-yl)carbamoyl)benzo[b]thiophen-5-yl)difluoromethyl)phosphonic acid] | – | – | DC50 (MOLM-16 cells, numeric bound, read-out: DC50 S6 MOLM-16): > 0.3 µM
CC(C)(C)[C@H](NC(=O)c1cc2cc(C(F)(F)P(=O)(O)O)ccc2s1)C(=O)N1Cc2cc(OCC(=O)NCCCCC#Cc3cccc4c3C(=O)N(C3CCC(=O)NC3=O)C4=O)ccc2C[C@H]1C(=O)N1CCC[C@H](c2ccccc2)C1 (stereo partly drawn) [Compound 555, ((2-(((2S)-1-((3S)-7-(2-((6-(2-(2,6-dioxopiperidin-3-yl)-1,3-dioxoisoindolin-4-yl)hex-5-yn-1-yl)amino)-2-oxoethoxy)-3-((R)-3-phenylpiperidine-1-carbonyl)-3,4-dihydroisoquinolin-2(1H)-yl)-3,3-dimethyl-1-oxobutan-2-yl)carbamoyl)benzo[b]thiophen-5-yl)difluoromethyl)phosphonic acid] | > 10 | – | –

Source: patent US20230295197A1, “STAT5 and STAT6 Degraders and Uses Thereof” (REGENTS OF THE UNIVERSITY OF MICHICAN, priority 2022, published 2023)
